Data set [1] can be described thus: Physical properties of anhydrate and hydrate (Table 1). The class given is physicochemical. As to the method:
2-Chloro-N-(4′-chlorobiphenyl-2-yl)nicotinamide was obtained at the end of the synthesis as hot xylenic solution. Upon cooling slowly, virtually all of the active ingredient crystallized from xylene. After filtration, residual xylene was removed by drying in a vacuum drying oven, whereby the active ingredient was obtained in the form of the anhydrate. The physical properties are compiled in Table 1.
1 g of 2-chloro-N-(4′-chlorobiphenyl-2-yl)nicotinamide anhydrate was dissolved in 20 ml of THF at 40° C. and the solution was then poured into 20 ml of water. The material which had precipitated was filtered off with suction and dried at 40° C. in a drying oven.
The physical properties of the 2-chloro-N-(4′-chlorobiphenyl-2-yl)nicotinamide monohydrate thus repared are shown in Tabelle 1.

The nature of data set [2]: Particle size of the formulation on storage (Malvern Mastersizer). The note with it: After eight milling passes, Dyno KDL mill. In kind it is physicochemical. The method, then: 500 g of 2-chloro-N-(4′-chlorobiphenyl-2-yl)nicotinamide monohydrate were combined as described under A with adjuvants. After the mixture had been stirred briefly, it was pumped through a Dyno KDL mill (1.2 mm beads, milling space 1.2 l) at a rate of 2 l/h. The milling process was carried out without problems. No clogging of the mill or crystallization in the receiver was observed. After eight milling passes, a sufficiently fine particle size of 70% <2 μm (Malvern Mastersizer) was achieved, i.e. the particle diameter of 70% of the particles is <2 μm.
The data shown are the percentage of the particles which are smaller than 2 μm.

Results on 2 molecules are retold here after patent publication US20040249164A1, “Crystalline hydrates of nicotinic acid anilide and benzoyl anilide derivatives” (priority 2001, published 2004).

Take `O=C(Nc1ccccc1-c1ccc(Cl)cc1)c1cccnc1Cl` [Anhydrate, 2-chloro-N-(4′-chlorobiphenyl-2-yl)nicotinamide]: the Water content in data set [1] is recorded as below 1%. With `O.O=C(Nc1ccccc1-c1ccc(Cl)cc1)c1cccnc1Cl` [Hydrate, 2-chloro-N-(4′-chlorobiphenyl-2-yl)nicotinamide monohydrate], the “particle size, share of particles <2 μm” value in data set [2] was found to be 70 % <2 μm. The Water content in data set [1] was 5%.
